Measurements as given in patent US11332485B2, “Penicillin-binding protein inhibitors” (priority 2017, dated 2022).

Tests used:
[1] = molecular target: T1, PBP3 from Escherichia coli (Escherichia coli, UniProt P0AD68); experiment: Fluorescence polarization competition binding assay with Bocillin-FL
T1 construct: made in house
Procedure, shortened: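 Fluorescence polarization competition assay with Bocillin-FL at 0.1 μM final and purified E. coli PBP3 at 1.5 μM final in 50 mM Hepes pH 8.0, 300 mM NaCl, 5% glycerol. Inhibitor preincubated with PBP3 for 30 min before probe addition; FP then read continuously for 60 min. Potency reported in binned categories.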

[2] = molecular target: T1, PBP3 from Escherichia coli; experiment: Competition binding assay using Bodipy-FL boronic acid probe (Example 95); details: PBP3 3 μM, read-out: E. coli K12 PBP3 Potency
Procedure: PBP3 from Escherichia coli was cloned and purified as described previously (King, D. T, et al., ACS Infectious Diseases 2015, 1, 175-184). To establish assay conditions for competition binding, an enzyme titration/saturation binding experiment was performed. […] FP was measured immediately upon addition of PBP3 (Ex, Em), using a Cytation3 (BioTek) microplate reader and measured continuously for 60 minutes. […] The competition binding assay was validated using the beta-lactam ampicillin, with Bocillin-FL at a final concentration of 0.1 μM, PBP3 at a final concentration of 1.5 μM and concentrations of ampicillin from 0-1000 μM. […] Binding assays for boronic acid PBP inhibitors were performed in an identical fashion. Representative results are shown in Table 3, where A represents a potency of >500 μM, B represents a potency between 30 μM and 500 μM inclusive, and C represents a potency of <30 μM. NT=Not Tested.
The method described in Example II was adapted to use a Bodipy-labeled boronic acid PBP inhibitor (Example 13 or Example 95) to assess PBP3 potency of boronic acid PBP inhibitors. The method is identical to that described in Example II for the Bocillin-FL competition binding assay, with the following exceptions: PBP3 from Escherichia coli is used at a final concentration of 3 μM. […]

T1 sequence (P0AD68 1-577): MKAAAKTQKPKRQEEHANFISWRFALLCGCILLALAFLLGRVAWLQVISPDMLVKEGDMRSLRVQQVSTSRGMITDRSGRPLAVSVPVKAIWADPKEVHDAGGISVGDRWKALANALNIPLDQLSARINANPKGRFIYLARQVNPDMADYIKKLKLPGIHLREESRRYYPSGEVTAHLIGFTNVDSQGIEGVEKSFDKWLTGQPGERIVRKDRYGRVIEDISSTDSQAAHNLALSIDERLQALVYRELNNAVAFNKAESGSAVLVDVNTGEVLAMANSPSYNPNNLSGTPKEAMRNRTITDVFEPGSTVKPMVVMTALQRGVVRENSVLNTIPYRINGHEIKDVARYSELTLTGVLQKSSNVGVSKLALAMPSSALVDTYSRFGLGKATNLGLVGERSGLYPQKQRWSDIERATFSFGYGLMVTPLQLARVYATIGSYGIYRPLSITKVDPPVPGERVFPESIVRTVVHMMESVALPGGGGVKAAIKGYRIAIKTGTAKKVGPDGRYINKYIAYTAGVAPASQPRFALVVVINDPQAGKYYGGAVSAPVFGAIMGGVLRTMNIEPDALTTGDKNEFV

CCN1CCN(C(=O)NC(C(=O)N[C@H]2Cc3cccc(C(=O)O)c3OB2O)c2csc(N)n2)C(=O)C1=O (stereo partly drawn) [Example 12, (3R)-3-(2-(2-aminothiazol-4-yl)-2-(4-ethyl-2,3-dioxopiperazine-1-carboxamido)acetamido)-2-hydroxy-3,4-dihydro-2H-benzo[e][1,2]oxaborinine-8-carboxylic acid]
EC50 [1]: < 30 µM
EC50 [2]: < 10 µM
